US7390870B2, “Immune-enhancing peptides” (Posco, priority 2001, dated 2008)
No end group written: not given here.

Experiments:
[1] = test system: human monocytes; assay: [Ca2+]i rise in human monocytes (fura-2/AM); format: cell-based
Experimental: (§1) The level of [Ca^2+]i was determined by Grynkiewicz's method using fura-2/AM (21). Briefly, prepared cells were incubated with 3 μM fura-2/AM at 37° C. for 50 minutes in a fresh serum-free RPMI 1640 medium under continuous stirring. 2×10^6 cells were aliquoted for each assay in Ca^2+-free Locke's solution (154 mM NaCl, 5.6 mM KCl1.2 mM MgCl2, 5 mM HEPES, pH 7.3, 10 mM glucose, and 0.2 mM EGTA). The fluorescence changes at the dual excitation wavelengths of 340 nm and 380 nm and the emission wavelength of 500 nm were measured, and the calibrated fluorescence ratio was translated into [Ca^2+]i.
Many extracellular agonists that stimulate superoxide generation in human phagocytic cells involve intracellular calcium rise (23). In this example, the effect of the peptides on the [Ca^2+]i of monocytes were tested. The results are shown FIG. 3. The data of FIG. 3 are presented as means ±S.E. of four independent experiments. *P<0.01 versus vehicle treatment.
Fura-2-loaded monocytes were stimulated with an effective concentration of HFYLPM (1 μM), MFYLPM (1 μM), HFYLPm (100 nM), and LFMYHP (10 μM). The change in 340 nm/380 nm was monitored. The cells were stimulated with various concentrations of each peptide. The peak level of the increase in [Ca^2+]i was monitored. […] The results of A of FIG. 3 are representative of 6 independent experiments. […]

[2] = test system: NIH3T3 (NIH Swiss mouse embryo fibroblast); assay: [Ca2+]i rise in NIH3T3 cells (fura-2); format: cell-based; details: FIG. 4A; 20 μM peptide
Experimental: as §1
From the fact that HFYLPM, MFYLPM, and HFYLPm stimulate human monocytes, effects of the peptides on other leukocytes such as neutrophils were evaluated. Prepared human primary monocytes, neutrophils, cultured HL60, Jurkat, U937, NIH3T3, 3Y1, 3T3L1, and PC12 cells were loaded with fura-2 and stimulated with effective concentrations of the three peptides (1 μM for monocyte and neutrophil; 10 μM for HL60 and Jurkat; 20 μM for U937, NIH3T3, 3Y1, 3T3L1, and PC12). The peak level of the [Ca^2+]i increase was recorded and superoxide generation was measured using cytochrome c reduction assay. The results are shown FIG. 4. The data of FIG. 4 are presented as means ±S.E. from at least three independent experiments.

[3] = test system: differentiated HL60 cells; assay: [Ca2+]i increase in differentiated HL60 cells (dHL60, granulocyte phenotype); format: cell-based, human; details: FIG. 5; various concentrations
Experimental: U937 (human histiocytic lymphoma cells), HL60 (human promyelocytic leukemia cells), Jurkat (human T cell leukemia cells), NIH3T3 (NIH Swiss mouse embryo fibroblasts), 3Y1 (Rat embryonic fibroblasts), 3T3L1 (preadipocytes), and PC12 (rat adrenal pheochromocytoma cells) were obtained from the American Type Culture Collection (Rockville, Md.) and maintained as re, commended. The cells were maintained at about 1×10^6 cells/ml under standard incubator conditions (humidified atmosphere, 95% air, 5% CO2, 37° C.). HL60 cells were induced to differentiate into the granulocyte phenotype by adding dimethylsulfoxide (DMSO) (final concentration 1.25%, v/v) for 4 days to the culture medium as has been described before (18).
as §1, with “2×10^6 cells were aliquoted for each assay in Ca^2+-free Locke's solution (154 mM NaCl, 5.6 mM KCl1.2 mM MgCl2, 5 mM HEPES, pH 7.3, 10 mM glucose, and 0.2 mM EGTA).” left out
A test where the three peptides on HL60 cells that had differentiated into granulocytes after having been cultured in the presence of 1.25% DMSO for 4 days was performed. […] The peak level of the [Ca^2+]i increase was recorded. […]

[4] = test system: monocytes; assay: Receptor specificity: monocyte chemotaxis after preincubation with a peptide; format: cell-based, human; details: FIG. 9, preincubation 10 μM peptide 10 minutes
Experimental: Chemotaxis assays of the peptide were performed using multiwell chambers (Neuroprobe Inc., Gaithersburg, Md.) (20). Briefly, the prepared isolated human monocytes were suspended in RPMI at a concentration of 1×10^6 cells/ml of serum-free RPMI, and 25 □ of the suspension were placed onto the upper well of a 96-well chemotaxis chamber that was separated by a […] filter with a 5 □ pore size (3 □ diameter pores not coated with polyvinylpyrrolidone for neutrophils) from peptides or an fMLF-containing lower well. After incubation for 2 hours (90 minutes for neutrophils) at 37° C., non-migrated cells were removed by scraping them out, and cells that migrated across the filter were dehydrated, fixed, and stained with hematoxylin (Sigma, St. Louis, Mo.). The stained cells in five randomly chosen high power fields (HPF) (400×) in that well were then counted (21). The numbers of migrated cells were determined by counting them in a high power field (400×). For a checkboard analysis, cells were re-suspended in RPMI containing various concentrations of the peptide just before transferring them to the upper wells as described before (22).
The three peptides, HFYLPM, MFYLPM, and HFYLPm which have similar sequences, exerted similar effects on human leukocytes in that they stimulated superoxide generation and chemotactic migration involving PTX-sensitive G-protein(s). So an attempt to reveal whether the three peptides acted through the same or different receptor(s) was carried out. For this purpose, monocytes were preincubated with 10 μM of each peptide, HFYLPM, MFYLPM, or HFYLPm for 10 minutes at 37° C., or they remained untreated. After washing twice, the cells were used for chemotaxis assay. The cells were allowed to migrate towards the maximal effective concentrations of each peptide (1 μM HFYLPM, 1 μM MFYLPM, or 10 nM HFYLPm) or medium. After fixing and staining of the membrane, migrated cells were quantified microscopically. […]

Met-Phe-Tyr-Leu-Pro-Met-CONH2 (MFYLPM-NH2)
effect on [Ca2+]i in monocytes ([1]; FIG. 3A, HFYLPM 1 μM, MFYLPM 1 μM, HFYLPm 100 nM, LFMYHP 10 μM): caused intracellular Ca mobilization
concentration of maximal [Ca2+]i increase ([1]; FIG. 3B): 1 µM
[Ca2+]i rise in NIH3T3 cells [2]: no response
[Ca2+]i rise in differentiated HL60 cells [3]: stimulated both undifferentiated and differentiated HL60 cells
inhibition of HFYLPm-induced cell migration by preincubation with peptide ([4]; migration towards 10 nM HFYLPm): no inhibition
inhibition of HFYLPm-induced cell migration by preincubation with peptide ([4]; migration towards 1 μM HFYLPM): partial inhibition
inhibition of MFYLPM-induced cell migration by preincubation with peptide ([4]; migration towards 1 μM MFYLPM): complete inhibition
